Reference: ChEMBL document CHEMBL1144985, “Rational design, synthesis and structure-activity relationships of a cyclic succinate series of TNF-alpha converting enzyme inhibitors. Part 2: lead optimization” (Bioorg Med Chem Lett, 2003)

Target: Matrix metalloproteinase-9 (Homo sapiens, UniProt P14780)
Experiment: Inhibitory activity against matrix metalloprotease-9 (MMP-9)

Matrix metalloproteinase-9, sequence (P14780 whole entry): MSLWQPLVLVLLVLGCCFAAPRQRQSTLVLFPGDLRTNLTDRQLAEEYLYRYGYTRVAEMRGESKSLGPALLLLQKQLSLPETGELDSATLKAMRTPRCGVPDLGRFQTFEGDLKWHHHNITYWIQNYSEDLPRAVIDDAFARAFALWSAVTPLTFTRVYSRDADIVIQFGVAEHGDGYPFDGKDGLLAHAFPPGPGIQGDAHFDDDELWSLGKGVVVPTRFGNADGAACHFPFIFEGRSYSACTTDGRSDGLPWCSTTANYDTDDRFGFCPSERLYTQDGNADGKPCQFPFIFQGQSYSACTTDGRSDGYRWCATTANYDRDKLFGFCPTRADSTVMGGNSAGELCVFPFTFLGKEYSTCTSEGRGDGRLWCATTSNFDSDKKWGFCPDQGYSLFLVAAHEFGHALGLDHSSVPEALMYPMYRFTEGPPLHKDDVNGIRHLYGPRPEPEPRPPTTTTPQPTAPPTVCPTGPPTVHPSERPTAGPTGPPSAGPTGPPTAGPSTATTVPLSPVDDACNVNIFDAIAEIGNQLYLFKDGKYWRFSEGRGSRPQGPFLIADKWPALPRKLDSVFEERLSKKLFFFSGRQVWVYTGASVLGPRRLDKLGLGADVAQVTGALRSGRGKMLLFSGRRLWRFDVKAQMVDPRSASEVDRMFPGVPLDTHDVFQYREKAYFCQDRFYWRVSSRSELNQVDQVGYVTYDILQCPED

Compound	Ki [µM]
Cc1cc(COc2ccc(NC(=O)[C@H]3CCN(S(=O)(=O)c4cn(C)cn4)C[C@@H]3C(=O)NO)cc2)c2ccccc2n1	0.366
Cc1cc(COc2ccc(NC(=O)[C@H]3CNCC[C@@H]3C(=O)NO)cc2)c2ccccc2n1	> 2.13
CC(=O)N1CC[C@H](C(=O)Nc2ccc(COc3ccnc4cc(C(F)(F)F)ccc34)cc2)[C@@H](C(=O)NO)C1	> 2.13
O=C(NO)[C@H]1CN(C(=O)c2ccco2)CC[C@@H]1C(=O)Nc1ccc(COc2ccnc3ccccc23)cc1	> 2.13

Further lines, results first:

Ki [µM]	Compound
> 2.13	Cc1cc(COc2ccc(NC(=O)[C@@H]3[C@@H](C(=O)NO)CCCN3C)cc2)c2ccccc2n1
> 2.13	Cc1cc(COc2ccc(NC(=O)[C@H]3CCN(C(=O)NC(C)(C)C)C[C@@H]3C(=O)NO)cc2)c2ccccc2n1
> 2.13	O=C(NO)[C@H]1CN(C(=O)C2CC2)CC[C@@H]1C(=O)Nc1ccc(Oc2ccnc3ccccc23)cc1
> 2.13	Cc1cc(COc2ccc(NC(=O)[C@H]3CCN(C(C)C)C[C@@H]3C(=O)NO)cc2)c2ccccc2n1

System: not listed separately
Experiment: Solubility was determined

solubility [µg/mL]	Compound
> 10000	Cc1cc(COc2ccc(NC(=O)[C@H]3CCN(C(C)C)C[C@@H]3C(=O)NO)cc2)c2ccccc2n1
> 10000	Cc1cc(COc2ccc(NC(=O)[C@H]3CNCC[C@@H]3C(=O)NO)cc2)c2ccccc2n1

Target: T1, Interstitial collagenase (Homo sapiens, UniProt P03956)
T1 sequence (P03956 whole entry): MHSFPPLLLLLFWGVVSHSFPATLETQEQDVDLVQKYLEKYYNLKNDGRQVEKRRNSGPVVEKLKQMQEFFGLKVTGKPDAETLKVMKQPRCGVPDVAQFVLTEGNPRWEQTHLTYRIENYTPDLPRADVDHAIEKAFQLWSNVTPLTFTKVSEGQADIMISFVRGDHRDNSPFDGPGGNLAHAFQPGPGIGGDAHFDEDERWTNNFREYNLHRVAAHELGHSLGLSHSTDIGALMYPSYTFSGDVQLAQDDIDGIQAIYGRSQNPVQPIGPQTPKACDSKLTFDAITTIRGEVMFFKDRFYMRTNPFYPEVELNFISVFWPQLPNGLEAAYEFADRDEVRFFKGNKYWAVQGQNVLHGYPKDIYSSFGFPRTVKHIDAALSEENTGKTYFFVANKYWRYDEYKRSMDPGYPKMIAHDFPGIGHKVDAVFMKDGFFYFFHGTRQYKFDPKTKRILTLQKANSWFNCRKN
Experiment: Inhibitory activity against matrix metalloprotease-1 (MMP-1)

Compound	Ki [µM]
Cc1cc(COc2ccc(NC(=O)[C@H]3CCN(S(=O)(=O)c4cn(C)cn4)C[C@@H]3C(=O)NO)cc2)c2ccccc2n1	> 4.95
Cc1cc(COc2ccc(NC(=O)[C@H]3CNCC[C@@H]3C(=O)NO)cc2)c2ccccc2n1	> 4.95
CC(=O)N1CC[C@H](C(=O)Nc2ccc(COc3ccnc4cc(C(F)(F)F)ccc34)cc2)[C@@H](C(=O)NO)C1	> 4.95
O=C(NO)[C@H]1CN(C(=O)c2ccco2)CC[C@@H]1C(=O)Nc1ccc(COc2ccnc3ccccc23)cc1	> 4.95

Now from value to compound:

Ki [µM]	Compound
> 4.95	Cc1cc(COc2ccc(NC(=O)[C@@H]3[C@@H](C(=O)NO)CCCN3C)cc2)c2ccccc2n1
> 4.95	Cc1cc(COc2ccc(NC(=O)[C@H]3CCN(C(=O)NC(C)(C)C)C[C@@H]3C(=O)NO)cc2)c2ccccc2n1
> 4.95	O=C(NO)[C@H]1CN(C(=O)C2CC2)CC[C@@H]1C(=O)Nc1ccc(Oc2ccnc3ccccc23)cc1
> 4.95	Cc1cc(COc2ccc(NC(=O)[C@H]3CCN(C(C)C)C[C@@H]3C(=O)NO)cc2)c2ccccc2n1

Target: 72 kDa type IV collagenase (Homo sapiens, UniProt P08253)
Sequence (P08253 whole entry): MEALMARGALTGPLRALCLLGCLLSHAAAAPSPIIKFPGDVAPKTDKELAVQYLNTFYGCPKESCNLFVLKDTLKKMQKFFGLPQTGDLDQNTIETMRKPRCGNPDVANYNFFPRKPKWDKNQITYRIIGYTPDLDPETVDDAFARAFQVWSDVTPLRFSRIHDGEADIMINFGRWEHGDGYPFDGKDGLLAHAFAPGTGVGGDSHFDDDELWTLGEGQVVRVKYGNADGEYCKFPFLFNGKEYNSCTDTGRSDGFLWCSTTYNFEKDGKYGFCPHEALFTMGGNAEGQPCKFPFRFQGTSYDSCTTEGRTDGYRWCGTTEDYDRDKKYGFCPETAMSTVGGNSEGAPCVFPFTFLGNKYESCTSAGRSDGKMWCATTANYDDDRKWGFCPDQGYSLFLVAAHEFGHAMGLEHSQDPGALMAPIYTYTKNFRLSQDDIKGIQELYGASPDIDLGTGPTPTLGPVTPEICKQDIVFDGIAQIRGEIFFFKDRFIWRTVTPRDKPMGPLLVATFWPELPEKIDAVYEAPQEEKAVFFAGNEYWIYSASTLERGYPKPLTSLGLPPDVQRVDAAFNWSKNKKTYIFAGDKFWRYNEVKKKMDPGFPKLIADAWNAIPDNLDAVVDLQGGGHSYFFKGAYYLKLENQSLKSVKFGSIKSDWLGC
Experiment: Inhibitory activity against matrix metalloprotease-2 (MMP-2)

Compound	Ki [µM]
Cc1cc(COc2ccc(NC(=O)[C@H]3CCN(S(=O)(=O)c4cn(C)cn4)C[C@@H]3C(=O)NO)cc2)c2ccccc2n1	1
Cc1cc(COc2ccc(NC(=O)[C@H]3CNCC[C@@H]3C(=O)NO)cc2)c2ccccc2n1	> 3.33
CC(=O)N1CC[C@H](C(=O)Nc2ccc(COc3ccnc4cc(C(F)(F)F)ccc34)cc2)[C@@H](C(=O)NO)C1	> 3.33
O=C(NO)[C@H]1CN(C(=O)c2ccco2)CC[C@@H]1C(=O)Nc1ccc(COc2ccnc3ccccc23)cc1	> 3.33

The next lines start with the values.

Ki [µM]	Compound
> 3.33	Cc1cc(COc2ccc(NC(=O)[C@@H]3[C@@H](C(=O)NO)CCCN3C)cc2)c2ccccc2n1
> 3.33	Cc1cc(COc2ccc(NC(=O)[C@H]3CCN(C(=O)NC(C)(C)C)C[C@@H]3C(=O)NO)cc2)c2ccccc2n1
> 3.33	O=C(NO)[C@H]1CN(C(=O)C2CC2)CC[C@@H]1C(=O)Nc1ccc(Oc2ccnc3ccccc23)cc1
> 3.33	Cc1cc(COc2ccc(NC(=O)[C@H]3CCN(C(C)C)C[C@@H]3C(=O)NO)cc2)c2ccccc2n1

Organism: Homo sapiens
Experiment: In vitro inhibition of TNF-alpha production was determined by using LPS-stimulated human whole blood assay (WBA)
Assay type: functional

Compound	IC50 [µM]
Cc1cc(COc2ccc(NC(=O)[C@H]3CCN(S(=O)(=O)c4cn(C)cn4)C[C@@H]3C(=O)NO)cc2)c2ccccc2n1	1.5
Cc1cc(COc2ccc(NC(=O)[C@H]3CNCC[C@@H]3C(=O)NO)cc2)c2ccccc2n1	0.53
CC(=O)N1CC[C@H](C(=O)Nc2ccc(COc3ccnc4cc(C(F)(F)F)ccc34)cc2)[C@@H](C(=O)NO)C1	2.6
O=C(NO)[C@H]1CN(C(=O)c2ccco2)CC[C@@H]1C(=O)Nc1ccc(COc2ccnc3ccccc23)cc1	0.7

Further lines, results first:

IC50 [µM]	Compound
0.02	Cc1cc(COc2ccc(NC(=O)[C@@H]3[C@@H](C(=O)NO)CCCN3C)cc2)c2ccccc2n1
0.56	Cc1cc(COc2ccc(NC(=O)[C@H]3CCN(C(=O)NC(C)(C)C)C[C@@H]3C(=O)NO)cc2)c2ccccc2n1
> 50	O=C(NO)[C@H]1CN(C(=O)C2CC2)CC[C@@H]1C(=O)Nc1ccc(Oc2ccnc3ccccc23)cc1
1.2	Cc1cc(COc2ccc(NC(=O)[C@H]3CCN(C(C)C)C[C@@H]3C(=O)NO)cc2)c2ccccc2n1

Target: Disintegrin and metalloproteinase domain-containing protein 17 (Sus scrofa, UniProt O77636)
Sequence (O77636 whole entry, the tested form may be a part): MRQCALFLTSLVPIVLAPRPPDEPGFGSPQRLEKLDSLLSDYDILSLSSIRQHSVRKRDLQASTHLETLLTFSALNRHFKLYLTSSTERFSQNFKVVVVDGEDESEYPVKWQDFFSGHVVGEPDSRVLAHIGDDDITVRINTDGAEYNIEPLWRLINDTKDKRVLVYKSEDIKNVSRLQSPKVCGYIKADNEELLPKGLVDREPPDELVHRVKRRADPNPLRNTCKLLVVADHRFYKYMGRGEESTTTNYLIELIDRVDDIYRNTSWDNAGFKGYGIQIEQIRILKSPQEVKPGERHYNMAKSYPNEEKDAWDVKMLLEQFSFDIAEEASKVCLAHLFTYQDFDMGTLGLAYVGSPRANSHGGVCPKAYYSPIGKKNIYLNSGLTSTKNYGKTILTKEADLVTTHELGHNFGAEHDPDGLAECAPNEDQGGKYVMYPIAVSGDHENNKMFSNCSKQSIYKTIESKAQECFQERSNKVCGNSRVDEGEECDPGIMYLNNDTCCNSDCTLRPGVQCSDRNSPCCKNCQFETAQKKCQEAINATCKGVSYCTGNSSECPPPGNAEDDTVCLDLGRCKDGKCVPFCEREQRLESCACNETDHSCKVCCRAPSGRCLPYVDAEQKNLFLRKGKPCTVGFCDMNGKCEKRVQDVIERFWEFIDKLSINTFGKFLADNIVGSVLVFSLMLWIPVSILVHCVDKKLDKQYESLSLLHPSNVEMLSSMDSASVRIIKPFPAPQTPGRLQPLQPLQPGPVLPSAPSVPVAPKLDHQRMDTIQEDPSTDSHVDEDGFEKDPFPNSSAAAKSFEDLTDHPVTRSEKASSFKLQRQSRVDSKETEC
Experiment: In vitro binding affinity against porcine TACE

Compound	IC50 [µM]
Cc1cc(COc2ccc(NC(=O)[C@H]3CCN(S(=O)(=O)c4cn(C)cn4)C[C@@H]3C(=O)NO)cc2)c2ccccc2n1	0.00031
Cc1cc(COc2ccc(NC(=O)[C@H]3CNCC[C@@H]3C(=O)NO)cc2)c2ccccc2n1	0.003
CC(=O)N1CC[C@H](C(=O)Nc2ccc(COc3ccnc4cc(C(F)(F)F)ccc34)cc2)[C@@H](C(=O)NO)C1	0.0032
O=C(NO)[C@H]1CN(C(=O)c2ccco2)CC[C@@H]1C(=O)Nc1ccc(COc2ccnc3ccccc23)cc1	0.0008

The next lines start with the values.

IC50 [µM]	Compound
0.0062	Cc1cc(COc2ccc(NC(=O)[C@@H]3[C@@H](C(=O)NO)CCCN3C)cc2)c2ccccc2n1
0.00041	Cc1cc(COc2ccc(NC(=O)[C@H]3CCN(C(=O)NC(C)(C)C)C[C@@H]3C(=O)NO)cc2)c2ccccc2n1
> 1	O=C(NO)[C@H]1CN(C(=O)C2CC2)CC[C@@H]1C(=O)Nc1ccc(Oc2ccnc3ccccc23)cc1
0.0012	Cc1cc(COc2ccc(NC(=O)[C@H]3CCN(C(C)C)C[C@@H]3C(=O)NO)cc2)c2ccccc2n1
